Results taken from the supplement of paper PMC13380429.
± gives the standard deviation of the averaged measurements.

Legend:
Details in all cases: 72 h
Vero E6 [1] = assay: drug sensitivity score (DSS) for viability; higher = more toxic; extreme values may be limits of the assay
Caco-2 [2] = assay: as above
HepG2 [3] = assay: as above
Calu-3 [4] = assay: as above
U2OS [5] = assay: as above
Vero E6 [6] = assay: relative viability EC50 (midpoint between 100% and the lowest measured viability); higher = less toxic
Caco-2 [7] = assay: as above
HepG2 [8] = assay: as above
Calu-3 [9] = assay: as above
U2OS [10] = assay: as above
Vero E6 [11] = assay: cell viability relative to DMSO; higher = less toxic
Caco-2 [12] = assay: as above
HepG2 [13] = assay: as above
Calu-3 [14] = assay: as above
U2OS [15] = assay: as above

SMILES | drug sensitivity score (Vero E6 [1]) | drug sensitivity score (Caco-2 [2]) | drug sensitivity score (HepG2 [3]) | drug sensitivity score (Calu-3 [4]) | drug sensitivity score (U2OS [5]) | relative viability EC50 (Vero E6 [6]) [µM] | relative viability EC50 (Caco-2 [7]) [µM] | relative viability EC50 (HepG2 [8]) [µM] | relative viability EC50 (Calu-3 [9]) [µM] | relative viability EC50 (U2OS [10]) [µM] | cell viability (Vero E6 [11]; 1 nM) [%] | cell viability (Vero E6 [11]; 10 nM) [%] | cell viability (Vero E6 [11]; 100 nM) [%] | cell viability (Vero E6 [11]; 1000 nM) [%] | cell viability (Vero E6 [11]; 10000 nM) [%] | cell viability (Caco-2 [12]; 1 nM) [%] | cell viability (Caco-2 [12]; 10 nM) [%] | cell viability (Caco-2 [12]; 100 nM) [%] | cell viability (Caco-2 [12]; 1000 nM) [%] | cell viability (Caco-2 [12]; 10000 nM) [%] | cell viability (HepG2 [13]; 1 nM) [%] | cell viability (HepG2 [13]; 10 nM) [%] | cell viability (HepG2 [13]; 100 nM) [%] | cell viability (HepG2 [13]; 1000 nM) [%] | cell viability (HepG2 [13]; 10000 nM) [%] | cell viability (Calu-3 [14]; 1 nM) [%] | cell viability (Calu-3 [14]; 10 nM) [%] | cell viability (Calu-3 [14]; 100 nM) [%] | cell viability (Calu-3 [14]; 1000 nM) [%] | cell viability (Calu-3 [14]; 10000 nM) [%] | cell viability (U2OS [15]; 1 nM) [%] | cell viability (U2OS [15]; 10 nM) [%] | cell viability (U2OS [15]; 100 nM) [%] | cell viability (U2OS [15]; 1000 nM) [%] | cell viability (U2OS [15]; 10000 nM) [%]
CC(C)NCC(O)COc1cccc2ccccc12 (stereo not given) [propranolol] | 0 | 0 | 0 | 0.467 ± 0.81 | 0.0333 ± 0.058 | > 10 | > 10 | > 10 | > 10 | > 10 | 94.3 ± 3.7 | 98.95 ± 0.49 | 95.3 ± 4 | 95.1 ± 0.71 | 99.3 ± 3.2 | 101 ± 2.7 | 96 ± 3.8 | 101 ± 3 | 95 ± 9.6 | 100 ± 4.5 | 92.9 ± 6.3 | 101 ± 2.8 | 95.6 ± 7 | 102 ± 6 | 102 ± 1.6 | 95.3 ± 3.9 | 96.7 ± 2.8 | 99.4 ± 6 | 89.6 ± 5 | 92.9 ± 1.8 | 96.1 ± 3.6 | 95.2 ± 2.7 | 97.2 ± 7.5 | 95.6 ± 2.3 | 96.5 ± 7.6
c1ccc(COCCCc2c[nH]cn2)cc1 [proxyfan] | 0 | 0 | 0 | 0 | 0 | > 10 | > 10 | > 10 | > 10 | > 10 | 96.9 | 95.8 | 95.9 | 99 | 93.3 | 96.4 | 92.9 | 93.5 | 91.6 | 95.6 | 97.9 | 108 | 97.7 | 103 | 107 | 101 | 101 | 98.4 | 103 | 105 | 99.6 | 97.8 | 102 | 97.5 | 101
NC[C@H]1O[C@H](O[C@H]2[C@H](O[C@@H]3O[C@H](CO)[C@@H](O)[C@H]3O)[C@@H](O)[C@H](N)C[C@@H]2N)[C@H](N)[C@@H](O)[C@@H]1O [ribostamycin-sulfate] | 0 | 0.9 ± 1.3 | 0.05 ± 0.071 | 0 | 0 | > 10 | > 10 | > 10 | > 10 | > 10 | 103 ± 8.4 | 94 ± 5.7 | 100 ± 4.7 | 97.2 ± 2.3 | 102 ± 2.2 | 94.5 ± 5 | 97.1 ± 2.4 | 87.5 ± 12 | 93 ± 2 | 88.5 ± 9.1 | 99.2 ± 0.85 | 106.8 ± 0.21 | 97 ± 5.2 | 102 ± 4.5 | 93.6 ± 8.2 | 93.8 ± 8.4 | 97.7 ± 13 | 90.5 ± 5 | 104 ± 9.5 | 89.6 ± 0.99 | 96.8 ± 1.1 | 98.8 ± 2.2 | 96.3 ± 2.3 | 101 ± 4.4 | 98.5 ± 1.5
COc1ccc(NS(=O)(=O)c2ccc(/N=N/c3ccc(O)c(C(=O)O)c3)cc2)nn1 [salazodine] | 0 | 0 | 0 | 0 | 0 | > 10 | > 10 | > 10 | > 10 | > 10 | 105 | 108 | 95.7 | 101 | 101 | 111 | 89.4 | 97.4 | 95.4 | 93.7 | 99.6 | 97.7 | 92.5 | 95.1 | 96.9 | 98 | 108 | 102 | 116 | 111 | 101 | 98 | 98.6 | 96.2 | 102
Nc1ncnc2c1ncn2[C@@H]1O[C@H](C[C@@H](N)CC[C@H](N)C(=O)O)[C@@H](O)[C@H]1O [sinefungin] | 0 | 0 | 0 | 0 | 0 | > 10 | > 10 | > 10 | > 10 | > 10 | 112 | 94.3 | 102 | 104 | 99.5 | 86.7 | 95.5 | 91.4 | 108 | 106 | 115 | 96.2 | 113 | 89.9 | 97.1 | 104 | 104 | 100 | 94.8 | 93.5 | 96.6 | 98.1 | 97.7 | 101 | 96.2
O=C(O)[C@H](O)[C@@H](O)[C@H](O)[C@H](O)CO [sodium-gluconate] | 0 | 0 | 0 | 0 | 0 | > 10 | > 10 | > 10 | > 10 | > 10 | 96.9 | 107 | 102 | 93.5 | 105 | 104 | 101 | 104 | 113 | 92.2 | 79.7 | 108 | 94.3 | 92.7 | 91 | 106 | 96.6 | 108 | 109 | 105 | 96.9 | 97 | 98.2 | 99.8 | 103
CC(C(=O)O)c1ccc(C(=O)c2cccs2)cc1 (stereo not given) [suprofen] | 0 | 0 | 1.1 | 1.6 | 0 | > 10 | > 10 | > 10 | > 10 | > 10 | 97.7 | 97.9 | 95.4 | 102 | 98.7 | 105 | 98 | 101 | 98 | 90.8 | 102 | 93.2 | 92.9 | 86.8 | 85.3 | 97.9 | 103 | 89 | 86.6 | 89.8 | 101 | 93.5 | 97.4 | 97 | 103
O=C(CO)[C@@H](O)[C@@H](O)[C@H](O)CO [tagatose] | 0 | 0 | 0 | 0 | 0 | > 10 | > 10 | > 10 | > 10 | > 10 | 93.7 | 94.5 | 92.1 | 85.3 | 110 | 98.5 | 94.4 | 103 | 106 | 99.3 | 101 | 91.6 | 97.6 | 94.9 | 106 | 98.4 | 99.6 | 99.7 | 97 | 102 | 89.1 | 95.3 | 92.7 | 102 | 107
C=CCNC1=C2C[C@@H](C)C[C@H](OC)[C@H](O)[C@@H](C)/C=C(\C)[C@H](OC(N)=O)[C@@H](OC)/C=C\C=C(/C)C(=O)NC(=CC1=O)C2=O [tanespimycin] | 9.8 | 7.7 | 33.3 | 13.5 | 21 | 0.768 | 1.18 | 0.0174 | 0.161 | 0.164 | 108 | 100 | 104 | 51.4 | 26.5 | 93.6 | 98.8 | 101 | 71.8 | 29.2 | 113 | 80.2 | 1.9 | 1.3 | 2.2 | 108 | 105 | 83.3 | 40.2 | 38.2 | 101 | 102 | 73.2 | 4.8 | 1.8
CNC(=N)NCCC[C@H](N)C(=O)O [targinine] | 0.5 | 0 | 0 | 0 | 0 | > 10 | > 10 | > 10 | > 10 | > 10 | 96.3 | 98.1 | 95.9 | 99.6 | 81.3 | 98.1 | 98 | 101 | 96.8 | 96 | 94.1 | 103 | 96.9 | 98.6 | 96.3 | 96.7 | 96.9 | 96.8 | 111 | 99.2 | 105 | 96.9 | 101 | 101 | 102
CCOC(=O)Nc1ccc2c(c1)N(C(=O)CN(C)C)c1ccccc1CC2 [tiracizine] | 0 | 0 | 0 | 0 | 0 | > 10 | > 10 | > 10 | > 10 | > 10 | 99.8 | 99.2 | 97.3 | 97.9 | 97.8 | 106 | 105 | 105 | 98.9 | 100 | 106 | 95.4 | 111 | 87.6 | 102 | 107 | 103 | 87 | 85 | 106 | 99.9 | 104 | 96.5 | 101 | 99.7
CCn1c(=O)n(C2=C(CO)CN(CC3CCCCCCC3)CC2)c2ccccc21 [trap-101] | 0 | 0.3 | 0 | 0 | 0 | > 10 | > 10 | > 10 | > 10 | > 10 | 98 | 96.8 | 95.6 | 96.3 | 98.9 | 102 | 89.9 | 96.7 | 93.6 | 83.5 | 97.8 | 96.7 | 91.5 | 96.5 | 98 | 99.6 | 106 | 94.5 | 104 | 92.6 | 98.2 | 101 | 97.4 | 98.8 | 93.8
Oc1cc(Cl)ccc1Oc1ccc(Cl)cc1Cl [triclosan] | 0 | 0 | 0 | 0 | 0 | > 10 | > 10 | > 10 | > 10 | > 10 | 97 | 104 | 106 | 112 | 95.3 | 105 | 102 | 94.5 | 95.6 | 126 | 105 | 99.3 | 102 | 93.8 | 113 | 97.7 | 92.3 | 106 | 101 | 107 | 98.7 | 96.5 | 98.3 | 97.9 | 99.3
COc1cc(C(=O)N2CCOCC2)cc(OC)c1OC [trimetozine] | 0 | 0 | 0 | 0 | 0 | > 10 | > 10 | > 10 | > 10 | > 10 | 106 | 107 | 108 | 94.8 | 99.9 | 95.4 | 105 | 86.4 | 108 | 96.6 | 93.8 | 92.9 | 102 | 95.3 | 98.8 | 98.9 | 94.8 | 101 | 92.1 | 102 | 95.8 | 98.3 | 96.8 | 99.9 | 96.6
